Earlier results as cited in patent US5993850A, “Preparation of multivesicular liposomes for controlled release of encapsulated biologically active substances” (priority 1994, dated 1999).

Tested on: strains of both gram negative and gram positive bacteria
Settings: background statement; cited from earlier work

In the case of `NCC[C@H](O)C(=O)N[C@@H]1C[C@H](N)[C@@H](O[C@H]2O[C@H](CN)[C@@H](O)[C@H](O)[C@H]2O)[C@H](O)[C@H]1O[C@H]1O[C@H](CO)[C@@H](O)[C@H](N)[C@H]1O` [amikacin], the antibacterial activity is listed as “clinically significant activity against strains of both gram negative and gram positive bacteria”.
